Measured values published in publication PMC5927115 (Japanese Journal of Cancer Research : Gann, 2002).
Like-named read-outs stand apart in the source and are kept apart here.

Assays:
[1] = system: receptor for fibroblast growth factor; conditions: ATP-binding site of the catalytic domain; cited from earlier work
[2] = system: EGFR; conditions: cited from earlier work
[3] = target: EGFR (Homo sapiens, UniProt P00533); assay: PTK; type: biochemical
[4] = target: T1, v-Src (Rous sarcoma virus, UniProt P00524); assay: PTK activity of immunopurified v-Src, 32P incorporation into Raytide; type: biochemical; conditions: for mode of inhibition of v-Src with respect to ATP: various ATP concentrations
T1 sequence (P00524 2-526): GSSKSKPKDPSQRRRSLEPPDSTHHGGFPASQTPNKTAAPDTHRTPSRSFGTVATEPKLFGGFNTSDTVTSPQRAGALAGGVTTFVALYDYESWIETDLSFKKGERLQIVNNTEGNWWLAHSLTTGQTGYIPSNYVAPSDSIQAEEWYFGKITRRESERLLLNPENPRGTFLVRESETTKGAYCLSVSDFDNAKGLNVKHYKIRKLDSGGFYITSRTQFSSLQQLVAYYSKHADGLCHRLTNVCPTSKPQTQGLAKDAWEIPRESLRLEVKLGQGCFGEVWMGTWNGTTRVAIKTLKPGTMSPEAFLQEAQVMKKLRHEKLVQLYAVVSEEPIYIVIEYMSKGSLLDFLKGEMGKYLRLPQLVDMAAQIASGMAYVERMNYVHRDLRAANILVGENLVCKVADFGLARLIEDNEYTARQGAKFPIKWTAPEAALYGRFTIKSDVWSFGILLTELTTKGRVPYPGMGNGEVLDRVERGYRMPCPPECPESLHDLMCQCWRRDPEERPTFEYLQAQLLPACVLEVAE

[5] = target: KDR/Flk-1 (Homo sapiens, UniProt P35968); assay: PTK activity in KDR/Flk-1-NIH3T3 cells; type: cell-based
KDR/Flk-1, sequence (P35968 20-1356): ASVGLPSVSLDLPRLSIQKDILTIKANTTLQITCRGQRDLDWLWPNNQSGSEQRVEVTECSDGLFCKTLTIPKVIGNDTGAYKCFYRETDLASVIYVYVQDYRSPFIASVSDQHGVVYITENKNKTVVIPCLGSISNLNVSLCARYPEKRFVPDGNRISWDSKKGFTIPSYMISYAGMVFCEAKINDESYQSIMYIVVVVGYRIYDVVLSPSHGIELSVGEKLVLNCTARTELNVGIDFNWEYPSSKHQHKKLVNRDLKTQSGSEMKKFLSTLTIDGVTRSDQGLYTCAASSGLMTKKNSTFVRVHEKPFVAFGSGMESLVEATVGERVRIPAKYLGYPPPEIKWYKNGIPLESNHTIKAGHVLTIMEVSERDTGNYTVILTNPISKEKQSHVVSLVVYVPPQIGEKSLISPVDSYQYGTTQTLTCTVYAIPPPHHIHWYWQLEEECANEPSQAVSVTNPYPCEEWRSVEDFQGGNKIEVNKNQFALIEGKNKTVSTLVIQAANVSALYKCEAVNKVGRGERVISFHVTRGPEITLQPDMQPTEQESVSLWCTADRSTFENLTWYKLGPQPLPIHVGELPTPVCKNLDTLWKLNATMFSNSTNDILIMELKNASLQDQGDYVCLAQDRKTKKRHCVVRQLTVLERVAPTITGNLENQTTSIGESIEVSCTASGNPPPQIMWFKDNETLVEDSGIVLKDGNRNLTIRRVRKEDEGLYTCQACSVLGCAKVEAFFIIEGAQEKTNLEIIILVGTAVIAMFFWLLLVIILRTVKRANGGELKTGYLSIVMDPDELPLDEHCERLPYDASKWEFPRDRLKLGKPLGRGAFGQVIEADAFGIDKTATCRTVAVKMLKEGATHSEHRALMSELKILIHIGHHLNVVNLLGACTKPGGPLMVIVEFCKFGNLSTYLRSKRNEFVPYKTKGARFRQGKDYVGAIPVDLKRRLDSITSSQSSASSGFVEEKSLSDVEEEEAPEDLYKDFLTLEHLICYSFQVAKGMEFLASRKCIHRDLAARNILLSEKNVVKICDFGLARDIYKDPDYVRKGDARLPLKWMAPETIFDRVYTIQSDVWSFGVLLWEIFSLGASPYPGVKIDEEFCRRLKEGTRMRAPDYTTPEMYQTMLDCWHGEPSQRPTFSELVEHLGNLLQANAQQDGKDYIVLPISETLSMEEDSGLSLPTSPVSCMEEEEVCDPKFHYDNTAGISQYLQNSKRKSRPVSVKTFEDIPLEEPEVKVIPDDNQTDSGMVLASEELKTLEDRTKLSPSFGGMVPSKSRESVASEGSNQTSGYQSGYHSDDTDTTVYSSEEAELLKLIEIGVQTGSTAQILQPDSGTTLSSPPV

[6] = target: Flt-1 (Homo sapiens, UniProt P17948); assay: PTK activity in Flt-1-overexpressing NIH3T3 cells; type: cell-based
Flt-1, sequence (P17948 27-1338, species assumed): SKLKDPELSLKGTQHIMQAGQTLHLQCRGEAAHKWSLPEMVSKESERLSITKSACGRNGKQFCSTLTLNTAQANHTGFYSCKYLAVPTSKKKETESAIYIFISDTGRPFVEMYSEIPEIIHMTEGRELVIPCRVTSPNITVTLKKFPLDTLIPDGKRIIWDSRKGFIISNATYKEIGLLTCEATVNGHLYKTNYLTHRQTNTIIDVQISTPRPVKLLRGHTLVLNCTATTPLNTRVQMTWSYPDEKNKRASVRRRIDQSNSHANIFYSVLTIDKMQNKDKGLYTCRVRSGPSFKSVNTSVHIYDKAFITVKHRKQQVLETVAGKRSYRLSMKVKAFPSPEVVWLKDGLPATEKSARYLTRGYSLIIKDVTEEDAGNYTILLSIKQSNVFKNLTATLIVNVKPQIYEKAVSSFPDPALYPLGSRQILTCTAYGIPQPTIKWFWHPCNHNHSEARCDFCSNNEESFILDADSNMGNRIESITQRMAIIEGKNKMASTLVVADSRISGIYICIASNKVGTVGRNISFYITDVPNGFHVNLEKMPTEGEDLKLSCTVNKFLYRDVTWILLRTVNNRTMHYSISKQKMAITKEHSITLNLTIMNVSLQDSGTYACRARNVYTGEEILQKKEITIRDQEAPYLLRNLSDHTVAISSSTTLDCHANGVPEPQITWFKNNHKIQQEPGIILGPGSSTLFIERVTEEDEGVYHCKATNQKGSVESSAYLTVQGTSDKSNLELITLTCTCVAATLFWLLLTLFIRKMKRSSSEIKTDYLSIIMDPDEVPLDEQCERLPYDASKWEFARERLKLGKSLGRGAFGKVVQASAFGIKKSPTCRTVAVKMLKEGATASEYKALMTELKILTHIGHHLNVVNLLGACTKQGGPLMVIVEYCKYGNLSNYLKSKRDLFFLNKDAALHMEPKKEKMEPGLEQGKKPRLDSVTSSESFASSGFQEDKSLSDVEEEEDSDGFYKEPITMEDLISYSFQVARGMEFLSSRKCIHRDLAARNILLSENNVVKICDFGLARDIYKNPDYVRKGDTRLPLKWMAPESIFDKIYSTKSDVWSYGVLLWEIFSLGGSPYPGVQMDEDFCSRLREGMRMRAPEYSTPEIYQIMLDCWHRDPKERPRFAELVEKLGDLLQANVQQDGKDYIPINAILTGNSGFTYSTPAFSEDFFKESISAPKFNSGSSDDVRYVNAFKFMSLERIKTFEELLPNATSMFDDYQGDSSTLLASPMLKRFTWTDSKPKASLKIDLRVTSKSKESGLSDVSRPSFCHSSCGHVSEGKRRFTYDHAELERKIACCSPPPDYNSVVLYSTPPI

[7] = target: catalytic subunit of protein kinase A (Bos taurus, UniProt P00517); assay: Activity of isolated catalytic subunit of protein kinase A; type: biochemical, bovine; conditions: treatment with as much as 100 M; results not shown
[8] = system: PTK; type: biochemical; conditions: SR-3Y1 lysate
[9] = system: protein kinase A; assay: Simultaneous protein kinase detection in SR-3Y1 lysate: protein kinase A bands; type: biochemical
[10] = system: protein kinase C; assay: Simultaneous protein kinase detection in SR-3Y1 lysate: protein kinase C bands; type: biochemical
[11] = target: eukaryotic elongation factor-2 kinase, and calmodulin-dependent protein kinase III (Rattus norvegicus, UniProt P70531); assay: Simultaneous protein kinase detection in SR-3Y1 lysate: eEF-2K, CaMK III bands; type: biochemical
eukaryotic elongation factor-2 kinase, and calmodulin-dependent protein kinase III, sequence (P70531 2-724): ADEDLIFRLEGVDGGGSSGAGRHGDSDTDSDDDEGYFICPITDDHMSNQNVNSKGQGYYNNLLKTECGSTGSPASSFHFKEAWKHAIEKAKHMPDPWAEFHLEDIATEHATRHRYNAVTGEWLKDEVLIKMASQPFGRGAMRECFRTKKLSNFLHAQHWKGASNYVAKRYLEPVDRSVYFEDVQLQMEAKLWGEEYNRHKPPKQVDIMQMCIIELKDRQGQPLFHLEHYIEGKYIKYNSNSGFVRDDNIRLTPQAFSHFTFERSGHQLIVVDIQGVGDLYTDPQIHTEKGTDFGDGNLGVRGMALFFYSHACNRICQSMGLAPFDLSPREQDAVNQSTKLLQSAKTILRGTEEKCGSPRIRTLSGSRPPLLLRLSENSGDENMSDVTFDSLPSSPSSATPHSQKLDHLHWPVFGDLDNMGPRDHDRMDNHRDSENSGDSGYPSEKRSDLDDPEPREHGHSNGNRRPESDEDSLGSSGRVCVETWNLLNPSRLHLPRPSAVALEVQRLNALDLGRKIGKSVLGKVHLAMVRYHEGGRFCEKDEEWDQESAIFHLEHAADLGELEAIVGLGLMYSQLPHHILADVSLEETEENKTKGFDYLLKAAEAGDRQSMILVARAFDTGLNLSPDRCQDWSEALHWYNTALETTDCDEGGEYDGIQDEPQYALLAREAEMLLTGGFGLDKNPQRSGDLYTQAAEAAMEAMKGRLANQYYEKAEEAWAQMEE

[12] = system: A431 cells; assay: Cell-growth inhibition of carcinoma A431 cells; type: cell-based; conditions: Homo sapiens, A-431, read-out: IC50 for cell-growth inhibition
[13] = system: SR-3Y1 cells; assay: Cell-growth inhibition of SR-3Y1 cells; type: cell-based; conditions: SR3Y1, read-out: IC50 for cell-growth inhibition
[14] = system: NCI-H522; assay: Cell death in human cancer cell line panel; type: cell-based; conditions: NCI-H522 lung cancer cells, 48 h
[15] = system: DMS114; assay: Cell death in human cancer cell line panel; type: cell-based; conditions: DMS114 lung cancer cells, 48 h
[16] = system: HL-60 cells; conditions: cited from earlier work
[17] = system: 37 lines of cancer cells derived from human solid tumors; assay: Cell death in panel of 37 lines of cancer cells derived from human solid tumors; type: cell-based; conditions: 37 human solid tumor lines, 48 h
[18] = system: sarcoma 180 tumor cells; conditions: mice implanted with sarcoma 180 tumor cells; cited from earlier work
[19] = system: topoisomerases I; conditions: cited from earlier work
[20] = system: topoisomerases II; conditions: cited from earlier work
[21] = target: T1, v-Src; conditions: cited from earlier work

EGFR (Homo sapiens, UniProt P00533), sequence (P00533 25-1210, looked up): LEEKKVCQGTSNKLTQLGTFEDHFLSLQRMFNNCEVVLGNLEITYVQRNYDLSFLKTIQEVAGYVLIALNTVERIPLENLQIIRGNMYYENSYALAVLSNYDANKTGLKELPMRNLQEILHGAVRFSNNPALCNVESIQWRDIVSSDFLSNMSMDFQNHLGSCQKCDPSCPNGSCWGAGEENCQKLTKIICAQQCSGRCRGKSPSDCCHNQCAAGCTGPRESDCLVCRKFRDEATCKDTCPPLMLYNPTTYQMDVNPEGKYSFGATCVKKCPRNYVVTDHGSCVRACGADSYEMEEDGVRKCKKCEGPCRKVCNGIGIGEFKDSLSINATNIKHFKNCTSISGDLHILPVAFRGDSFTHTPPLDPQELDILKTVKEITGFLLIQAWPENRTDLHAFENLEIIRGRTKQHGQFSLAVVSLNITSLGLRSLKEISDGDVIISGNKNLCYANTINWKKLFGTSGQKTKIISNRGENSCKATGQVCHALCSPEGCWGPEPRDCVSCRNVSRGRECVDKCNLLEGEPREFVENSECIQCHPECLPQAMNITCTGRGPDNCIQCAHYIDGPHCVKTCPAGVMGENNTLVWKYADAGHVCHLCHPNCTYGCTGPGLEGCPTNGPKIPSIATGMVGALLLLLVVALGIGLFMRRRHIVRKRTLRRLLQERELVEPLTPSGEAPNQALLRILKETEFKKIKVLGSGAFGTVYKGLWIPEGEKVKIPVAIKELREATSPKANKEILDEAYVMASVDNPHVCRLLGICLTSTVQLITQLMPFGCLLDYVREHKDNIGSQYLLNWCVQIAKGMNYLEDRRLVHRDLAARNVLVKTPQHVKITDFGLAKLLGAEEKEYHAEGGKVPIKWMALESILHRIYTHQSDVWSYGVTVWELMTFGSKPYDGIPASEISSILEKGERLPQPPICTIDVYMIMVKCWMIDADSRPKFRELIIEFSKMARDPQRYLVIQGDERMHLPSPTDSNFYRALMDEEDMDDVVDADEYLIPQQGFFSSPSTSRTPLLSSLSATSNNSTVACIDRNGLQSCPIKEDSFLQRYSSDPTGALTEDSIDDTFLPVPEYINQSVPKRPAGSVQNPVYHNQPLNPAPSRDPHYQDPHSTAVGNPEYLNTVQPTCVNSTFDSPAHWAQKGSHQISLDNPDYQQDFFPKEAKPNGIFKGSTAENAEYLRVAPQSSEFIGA

In the case of `Cc1[nH]c(/C=C2\C(=O)Nc3ccccc32)c(C)c1CCC(=O)O` [SU6668], the “mode of inhibition of receptor for fibroblast growth factor with respect to ATP” value [1] is listed as “compete with ATP”.

In the case of `O=C(O)c1cc(N(Cc2ccccc2O)Cc2cc(O)ccc2O)ccc1O` [lavendastin-A], the “mode of inhibition of PTK activity of EGFR with respect to ATP” value (“mode of inhibition of PTK activity … to ATP” below) [2] is listed as “competition with ATP”.

For `CC(C)=CC[C@@H](OC(=O)CC(C)(C)O)C1=CC(=O)c2c(O)ccc(O)c2C1=O` [β‐HIVS, β‐Hydroxyisovalerylshikonin], the IC50 [3] was about 0.7 µM, the “inhibition of tyrosine kinase activity of EGFR (in words)” value [3] was “strongly inhibited” and the “inhibition of tyrosine phosphorylation of EGFR” value [3] was “evident”. For the same compound, the IC50 [4] was about 1 µM, the “inhibition of tyrosine kinase activity of v-Src (in words)” value [4] was “strongly inhibited” and the “mode of inhibition of v-Src with respect to ATP” value ([4]; Lineweaver-Burk, 1 and 10 M inhibitor) was “non‐competitive”. For the same compound, the “mode of inhibition of v-Src with respect to ATP” value ([4]; Lineweaver-Burk, 1 and 10 M inhibitor, listed as -HIVS) was “did not compete with ATP”, the “mode of inhibition of v-Src with respect to substrate Raytide” value ([4]; Lineweaver-Burk, various Raytide concentrations, 1 and 10 M inhibitor) was “competitively inhibited” and the IC50 [5] was about 2.5 µM. For the same compound, the “concentration needed to inhibit the tyrosine kinase activity of KDR/Flk-1” value ([5]; KDR/Flk-1-NIH3T3 cells) was “more than 1 M”, the “inhibition of PTK activity of KDR/Flk-1 (in words)” value ([5]; KDR/Flk-1-NIH3T3 cells) was “weakly inhibited” and the “inhibition of PTK activity of KDR/Flk-1 (in words)” value ([5]; KDR/Flk-1-NIH3T3 cells, listed as -HIVS) was “inhibited significantly”. The IC50 [6] was over 5 µM, the “change in activity of catalytic subunit of protein kinase A” value [7] was “practically no change” and the “intensities of bands of proteins phosphorylated by PTK” value [8] was “decreased markedly”. The “intensities of bands of proteins phosphorylated by protein kinase A” value [9] was “not significantly altered”, the “intensities of bands of proteins phosphorylated by protein kinase C” value [10] was “not significantly altered” and the “intensities of bands of proteins phosphorylated by eEF-2 kinase and CaMK III” value [11] was “not significantly altered”. The IC50 [12] was about 11 µM, the IC50 [13] was about 1.2 µM and the induction of cell-death [14] was “efficiently induced cell-death”. For the same compound, the induction of cell-death [15] was “efficiently induced cell-death” and the induction of apoptosis [16] was “induced apoptosis”.

In the case of `CC(C)=CC[C@@H](O)C1=CC(=O)c2c(O)ccc(O)c2C1=O` [shikonin, reference compound], the “IC50 for EGFR” value ([3]; EGFR isolated from A431 cells, estimated from Fig. 4B) is reported as “impossible to estimate”, the “concentration required for inhibition of the PTK activity of EGFR” value ([3]; Fig. 4A) is reported as “more than 10 M” and the “PTK activity of v-Src remaining in the presence of inhibitor” value ([4]; lowest level reached over concentrations tested (Fig. 5)) is reported as at least 50%. The “inhibition of PTK activity of KDR/Flk-1 (in words)” value ([5]; KDR/Flk-1-NIH3T3 cells) was “inhibited significantly”, the “intensities of bands of proteins phosphorylated by PTK” value [8] was “decreased markedly” and the “intensities of bands of proteins phosphorylated by protein kinase A” value [9] was “not significantly altered”. For the same compound, the “intensities of bands of proteins phosphorylated by protein kinase C” value [10] was “not significantly altered”, the “intensities of bands of proteins phosphorylated by eEF-2 kinase and CaMK III” value [11] was “not significantly altered” and the “induction of cell death across the panel” value [17] was “induced cell death in a wide variety of tumor cell lines”. The antitumor activity [18] was “exhibits antitumor activity”, the “inhibition of topoisomerase I activity” value [19] was “inhibit” and the “inhibition of topoisomerase II activity” value [20] was “inhibit”.

For `CNc1cc2c(Nc3cccc(Br)c3)ncnc2cn1` [PD158780, 4‐[(3‐bromophenyl)amino]‐6‐(methylamino)‐pyrido[3,4‐d]pyrimidine], the “mode of inhibition of PTK activity … to ATP” value [2] is given as “competition with ATP”.

For `O=CN/C=C/c1cc(O)ccc1O` [erbstatin], the “mode of inhibition of PTK activity … to ATP” value [2] is listed as “competition with ATP”.

In the case of `O=c1c(O)c(-c2ccc(O)c(O)c2)oc2cc(O)cc(O)c12` [quercetin], the “mode of inhibition of v-Src with respect to ATP” value [21] is listed as “competition with ATP” and the IC50 ([21]; read-out: IC50 on v-Src) is listed as 3 µM.

In the case of `O=c1c(-c2ccc(O)cc2)coc2cc(O)cc(O)c12` [genistein], the “mode of inhibition of PTK activity … to ATP” value [2] is given as “competition with ATP”.
